Each structure is given as a SMILES string. pIC50: −log10 of the molar value.

In general, pIC50 refers to the IC50 on a negative log10 scale, so that one unit is a factor of ten.

The target of the assay is T1, Platelet-activating factor acetylhydrolase (Homo sapiens, UniProt Q13093).
T1 sequence (Q13093 whole entry): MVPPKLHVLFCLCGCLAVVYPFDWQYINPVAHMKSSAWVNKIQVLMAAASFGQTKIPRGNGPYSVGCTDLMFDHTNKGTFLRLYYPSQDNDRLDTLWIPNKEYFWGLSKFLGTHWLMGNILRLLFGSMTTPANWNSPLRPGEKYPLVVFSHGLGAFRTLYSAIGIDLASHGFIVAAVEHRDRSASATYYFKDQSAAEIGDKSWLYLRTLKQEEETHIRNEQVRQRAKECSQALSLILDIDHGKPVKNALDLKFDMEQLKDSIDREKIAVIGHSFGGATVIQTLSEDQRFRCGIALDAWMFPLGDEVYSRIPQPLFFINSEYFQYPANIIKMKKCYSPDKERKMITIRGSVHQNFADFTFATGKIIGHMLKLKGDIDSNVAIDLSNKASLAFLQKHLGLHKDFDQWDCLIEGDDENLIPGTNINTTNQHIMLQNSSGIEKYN
In words: Inhibitory activity against recombinant human Lp-PLA2 (Lp-PLA2).
For `COc1ncc(Cc2cn(CC(=O)N(C)Cc3ccc(-c4ccc(C(F)(F)F)cc4)cc3)c(SCc3ccc(F)cc3)nc2=O)cn1`, the pIC50 is 9.70. Then `Cn1cc(Cc2cn(CCCC(=O)NCc3ccc(-c4ccc(F)cc4)cc3)c(SCc3ccc(F)cc3)nc2=O)cn1`, with 8.40; and `Cn1cc(Cc2cn(CCCC(=O)NCc3ccc(-c4ccccc4)cc3)c(SCc3ccc(F)cc3)nc2=O)cn1`, with 8.30; and `CN(Cc1ccc(-c2ccc(Cl)cc2)cc1)C(=O)Cn1cc(Cc2cnc(N(C)C)nc2)c(=O)nc1SCc1ccc(F)cc1`, with 9.10. Regarding `COc1ncc(Cc2cn(CCCC(=O)NCc3ccc(-c4ccccc4)cc3)c(SCc3ccc(F)cc3)nc2=O)cn1`, the pIC50 is 8.40.

For `COc1ncc(Cc2cn(CC(=O)N(C)Cc3ccc(-c4ccc(F)cc4)cc3)c(SCc3ccc(F)cc3)nc2=O)cn1`, the pIC50 was 9.22. Take `COc1ncc(Cc2cn(CCCC(=O)N(C)Cc3ccc(-c4ccc(Cl)cc4)cc3)c(SCc3ccc(F)cc3)nc2=O)cn1`: the negative-log IC50 (pIC50) is 8.30. Take `O=C(Cn1cc(Cc2cncnc2)c(=O)nc1SCc1ccc(F)cc1)NCc1ccccc1-c1ccccc1`: the pIC50 was 6.71. With `O=C(Cn1cc(Cc2cncnc2)c(=O)nc1SCc1ccc(F)cc1)NCc1ccc(-c2ccccc2)cc1`, the pIC50 was 8.40. As for `CN(Cc1ccc(-c2ccccc2)cc1)C(=O)Cn1cc(Cc2cncnc2)c(=O)nc1SCc1ccc(F)cc1`, the pIC50 is 8.10. Then `COc1ncc(Cc2cn(CCCC(=O)NCc3ccc(-c4ccc(Cl)cc4)cc3)c(SCc3ccc(F)cc3)nc2=O)cn1`, with 8.40.

For `CCn1cc(Cc2cn(CC(=O)N(C)Cc3ccc(-c4ccc(Cl)cc4)cc3)c(SCc3ccc(F)cc3)nc2=O)cnc1=O`, the pIC50 is 9.30. On to `O=C(Cn1cc(Cc2cncnc2)c(=O)nc1SCc1ccc(F)cc1)NCc1cccc(-c2ccccc2)c1`, for which the pIC50 is 7.62. Under `CN(Cc1ccc(-c2ccc(Cl)cc2)cc1)C(=O)Cn1cc(Cc2cnc(C(F)(F)F)nc2)c(=O)nc1SCc1ccc(F)cc1` stands 8.30; under `CN(Cc1ccc(-c2ccc(Cl)cc2)cc1)C(=O)Cn1cc(Cc2cnc(N3CCOCC3)nc2)c(=O)nc1SCc1ccc(F)cc1`, 9.00. Turning to `COc1ncc(Cc2cn(CC(=O)NCc3ccc(-c4ccc(Cl)cc4)cc3)c(SCc3ccc(F)cc3)nc2=O)cn1`, the pIC50 is 9.30. For `CN(Cc1ccc(-c2ccc(F)cc2)cc1)C(=O)CCCn1cc(Cc2cnn(C)c2)c(=O)nc1SCc1ccc(F)cc1`, the pIC50 was 8.10.

These data come from ChEMBL document CHEMBL1135094, “Potent, orally active inhibitors of lipoprotein-associated phospholipase A(2): 1-(biphenylmethylamidoalkyl)-pyrimidones” (Bioorg Med Chem Lett, 2002).
